One assay has as its target His-AKT (Full Length) (Homo sapiens (Human), UniProt P31749). Put plainly: AKT/PKB kinase assay. Format: biochemical. The settings on record: 160 μM ATP, 90 min at 25° C., Caliper mobility shift.
In another assay the target is p70S6K (T412E mutant) (Homo sapiens (Human), UniProt P23443, T412E). Kind of assay: p70S6K enzyme assay. Format: biochemical. Particulars: 24 μM ATP, 90 min at 25° C., Caliper mobility shift.

This passage reports IC50 results from patent publication US9981925B2, “Substituted benzo[d][1,2,3]triazines as p70S6K inhibitors” (Merck Patent GmbH, priority 2012, dated 2018).

Broadly, the IC50 is the midpoint of a concentration-inhibition curve.

A value given as a limit tells only on which side of the number the result lay.

His-AKT (Full Length), sequence (P31749 whole entry): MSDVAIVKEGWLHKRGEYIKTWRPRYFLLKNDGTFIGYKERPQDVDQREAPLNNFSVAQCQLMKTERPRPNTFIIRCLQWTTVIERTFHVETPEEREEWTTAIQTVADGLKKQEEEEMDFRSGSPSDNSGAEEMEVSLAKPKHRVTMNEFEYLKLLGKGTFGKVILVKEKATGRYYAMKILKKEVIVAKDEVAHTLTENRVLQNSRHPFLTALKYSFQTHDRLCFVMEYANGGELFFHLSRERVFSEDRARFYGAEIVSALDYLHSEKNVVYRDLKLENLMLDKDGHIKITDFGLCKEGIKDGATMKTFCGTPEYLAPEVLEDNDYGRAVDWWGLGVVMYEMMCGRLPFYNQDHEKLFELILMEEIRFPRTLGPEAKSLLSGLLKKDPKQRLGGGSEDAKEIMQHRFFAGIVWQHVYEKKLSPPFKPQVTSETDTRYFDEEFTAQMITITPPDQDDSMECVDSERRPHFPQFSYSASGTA
p70S6K (T412E mutant), sequence (P23443 whole entry T412E): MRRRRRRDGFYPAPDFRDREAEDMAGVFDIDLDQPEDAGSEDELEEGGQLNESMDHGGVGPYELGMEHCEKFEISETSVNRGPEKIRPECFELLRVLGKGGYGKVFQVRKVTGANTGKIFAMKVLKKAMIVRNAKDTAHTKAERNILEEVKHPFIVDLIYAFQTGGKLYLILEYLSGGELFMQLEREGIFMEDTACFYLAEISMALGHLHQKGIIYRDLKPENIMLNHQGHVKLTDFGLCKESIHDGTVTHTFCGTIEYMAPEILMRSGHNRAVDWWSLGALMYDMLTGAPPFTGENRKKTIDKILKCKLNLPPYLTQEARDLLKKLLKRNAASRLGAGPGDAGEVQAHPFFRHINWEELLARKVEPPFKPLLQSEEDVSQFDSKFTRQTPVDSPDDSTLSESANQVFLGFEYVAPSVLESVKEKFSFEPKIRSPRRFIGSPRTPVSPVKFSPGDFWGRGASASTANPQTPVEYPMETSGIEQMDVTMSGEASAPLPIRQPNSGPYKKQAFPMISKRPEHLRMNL

For the compound `CNC[C@@H](Nc1ncnc2c(C(N)=O)ccnc12)c1cccc(Cl)c1` [Compound 64, 4-[(S)-1-(3-Chloro-phenyl)-2-methylamino-ethylamino]-pyrido[3,2-d]pyrimidine-8-carboxylic Acid Amide], the IC50 on His-AKT (Full Length) and at p70S6K (T412E mutant) was under 25 nM throughout.

In the case of `CC(C)c1ccc([C@@H](CN2CCC2)Nc2ncnc3c(C(N)=O)ccnc23)cc1` [Compound 37, 4-[(S)-2-Azetidin-1-yl-1-(4-isopropyl-phenyl)-ethylamino]-pyrido[3,2-d]pyrimidine-8-carboxylic Acid Amide], the IC50 was 501 to 1000 nM at His-AKT (Full Length) and under 25 nM at p70S6K (T412E mutant).
